Assay: Aqueous solubility of hydroxamic acid compounds
Format: physicochemical
Conditions: deionized water, pH 5.5, stirred overnight, filtered, 1H NMR quantification
Method: The aqueous solubility was measured and the partition coefficient was computed for nineteen hydroxamic acid compounds. To measure the aqueous solubility, a supersaturated solution of each hydroxamic acid compound was prepared in deionized water. The pH was adjusted to 5.5 using nitric acid and the supersaturated solution was stirred overnight. Excess solids were removed via filtration and the hydroxamic acid compound in solution was quantified using 1H NMR with a t-BuOH standard. […] It was not possible to achieve super saturation for the 2-furohydroxamic acid compound. […] The partition coefficients were computed using the procedure described in Wildman, Scott A. and Crippen, Gordon M., Prediction of Physicochemical Parameters by Atomic Contributions, J. Chem. Inf. Comput. Sci. 1999, 39, 5, 868-873. Briefly, an atom type classification system was used for an atom-based calculation of the partition coefficient (log P) and the molar refractivity (MR).

Point of comparison: `N#Cc1ccc(C(=O)NO)cc1` [4-Cyano-N-hydroxybenzamide], “Aqueous Solubility” value 0.5%. Against it:
- CCCCCCCC(=O)NO [Octanohydroxamic acid] — lower, 0.2%
- COc1ccccc1C(=O)NO [2-Methoxybenzohydroxamic acid] — higher, 1.1%
- O=C(Cc1ccccc1)NO [N-hydroxy-2-phenyl-acetamide] — higher, 1.5%
- O=C(NO)c1ccccc1 [Benzohydroxamic acid] — higher, 3.6%
- O=C(CCCc1ccccc1)NO [4-Phenylbutyrl hydroxamic acid] — higher, 1.6%
- O=C(COCc1ccccc1)NO [Benzyloxyacetohydroxamic acid] — higher, 1.8%
- 3-Fluoro hydroxamic acid — higher, 1.3%
- 2-Fluoro hydroxamic acid — higher, 1.0%
- CCCCCC(=O)NO [Hexanohydroxamic acid] — higher, 4.8%
- 4-Fluoro hydroxamic acid — higher, 1.0%
- Cc1ccc(CCCC(=O)NO)cc1 [4-(p-tolyl)butyrohydroxamic acid] — lower, 0.2%
- COc1ccc(C(=O)NO)cc1 [4-Methoxybenzohydroxamic acid] — lower, 0.4%
- O=C(NO)c1ccccn1 [Picolinichydroxamic acid] — higher, 3.0%
- O=C(C=Cc1ccccc1)NO [Cinnamohydroxamic acid] — higher, 0.6%
- Cc1ccccc1C(=O)NO [2-Methylbenzohydroxamic acid] — higher, 3.3%
- Cc1ccc(C(=O)NO)cc1 [4-Methylbenzohydroxamic acid] — the same, 0.5%

With `O=C(NO)c1ccco1` [2-furohydroxamic acid] the “Aqueous Solubility” value was >17.8%.
